This is an account of results in US20150030542A1, “METHODS FOR MEDICAL IMAGING” (priority 2013, published 2015).

The conditions of data set [1]: cited from earlier work.
The subject of the next data set is chest and breast tumors. Nature of the data set: Pilot patient study: intraoperative in vivo/in situ NIR imaging of tumor fluorescence.
For data set [2] the following is noted: in vivo, cited from earlier work.
The subject of data set [3] is human tumors. The data set is described as follows: Ex vivo analysis of tumor fluorescence of resected specimens (NIR imaging, hand-held spectrometer). Format: in vivo. The text has this:
Following in vivo imaging, the patients then underwent a standard-of-care surgical resection of the tumor. Once removed from the patient, the specimen was examined, opened, biopsied and analyzed ex vivo (FIG. 2a). Every case was photo-documented both by brightfield imaging and NIR imaging. […] Then, the hand held spectrometer was used to semi-quantitate tissue fluorescence. Each tumor had 4 measurements at four perpendicular locations and the center of the tumor (total of 20 measurements/tumor). Mean fluorescence in the human tumors was 53,304±4193 au in 25 out of 27 masses (93%) (FIG. 2b). We conjectured that the center of the tumor might be less fluorescent than the periphery due to necrosis or, conversely, that the center of the tumor might be more fluorescent than the periphery due to increased ICG retention. We found neither to be true. The fluorescence from the tumors was remarkably homogeneous throughout the tumor. We believe this reflects “bleed over” of the fluorescent signal from different areas of the tumor surface. The quality of the image was subjectively better ex vivo than in vivo due to the lack of respiratory motion, light artifact and glare from surrounding tissue retractors. Depending on the different tissues removed from each patient as part of the standard operation, a thorough spectroscopic examination was performed. The average signal diminished from over 50,000 au at the tumor margin to less than 12,000 au within 2 mm of the gross tumor margin. There were some higher signals in areas of atelectatic lung (range 0 to 24,832 au), however, this could easily be distinguished from the tumor by manual palpation. The background signal was measured from the patients' skin, muscles (latissmus dorsi, serratus anterior, intercostal), pericardium, normal lung, lymph nodes, adipose tissues, nerves (intercostal), airway and thymus whenever safely possible (FIG. 2b).
There were 25 cancers and 2 non-cancers (aspergilloma and pulmonary infarct). The two masses that were not fluorescent were a metastatic melanoma (7,342±411 au) and a pulmonary infarct (hematoma, 8,002±554 au). The aspergillus ball, a localized fungus infection, was fluorescent (58,209±1,302 au) likely due to the strong inflammatory reaction surrounding it. […] The pulmonary infarct or hematoma was an old clot secondary to trauma in a person that had been mistaken for a cancer on preoperative imaging. […]

Data set [4] relates to 4T1 breast cancer, TC1 lung cancer, EL4 thymoma, AE17 mesothelioma, AKR esophageal cancer flank tumors. Nature of the data set: NIR labeling of syngeneic flank tumors in mice with systemic ICG (tissue spectrometer). The note with it: 7.5 mg/kg ICG via tail vein, next day, flank tumors ~200 mm^3, five cell lines.
Procedure: (§1) Preclinical evidence for NM tumor labeling to detect primary and metastatic tumor deposits. (A) Six cancer cell types were injected into the flank of syngeneic mice. Once established (200 mm3), animals were dosed with 7.5 mg/kg of ICG and imaged. Tumors were harvested, imaged and stained for CD31. Histology images taken at 200× magnification (B) C57bl/6 mice (n=21) were injected with LLC cells in their flanks on Day 0. Starting on Day 12, the animals were euthanized, dosed with 7.5 mg/kg ICG 20 hours earlier and their thoracic cavities opened. Observers determined if the metastatic tumor nodules were visible in the lung. NIR imaging was then used to detect disease that was not visible to the un-assisted human eye.
After the tumors were well established (˜200 mm^3), 7.5 mg/kg of ICG was administered via the tail vein. The next day, a tissue spectrometer was used to semi-quantitate fluorescence from the tumor, surrounding tissue and 12 organs. […] Tumors were harvested, sectioned and assayed for microvessel density to determine if there was a correlation between tumor vascularity and fluorescence (FIG. 1a).
All mice were maintained in pathogen-free conditions and used for experiments at ages 8 week or older. […] Tumor cells for subcutaneous injections were suspended in 100 μL PBS. Tumor volume was calculated using the formula (π×long-axis×short-axis^2)/6. […]
In data set [5] the test system is human tumors. The data set is described as follows: Semi-quantification of ICG concentration in tumors (imaging beside ICG standard panel). It counts as in vivo. Here is the method: To quantify the concentration of ICG in the resected tissues, normal (control) and cancerous tissues were imaged ex vivo alongside a standard control panel of known concentrations of ICG aliquots mixed with plasma from the same patient. Our system was able to detect concentrations between 0 μg/ml and 2000 μg/ml. […] However, in the tumors, there was a broad range of ICG concentration. In 9 of the 10 specimens, the ICG concentration ranged from 2 to 100 μg/ml (FIG. 3c). No tumor fluoresced above an ICG concentration of 100 μg/ml. However, from a subjective point-of-view, the surgeon was not able to identify any tumors as more or less fluorescent. One cancer (metastatic melanoma) had less than 1 μg/ml of ICG and was not subjectively fluorescent to the surgeon. We also attempted to measure ICG concentration in the tissue by homogenizing punch biopsies and measuring fluorescence in a standard desk fluorometer, however, this approach was unreliable.
To quantify the maximum concentration of ICG in each tumor, 10 patients had their plasma collected at the time of operation. Two mg of ICG was dissolved in 1 ml of plasma and serially diluted 8 times to a final ratio of 1:20,000. 100 μL of stock solution and each dilution was then placed in consecutive wells in a black 96 well plate. When tumors were imaged ex-vivo, this plate was concurrently imaged. These images were then imported into ImageJ® software. Region of interest (ROI) data was taken from each of the 9 wells and from the tumor. The maximum fluorescent signal from the tumor was compared to the wells to determine the highest concentration per tumor. Each tumor was then categorized as have an ICG concentration between given the standards in the known panel.

In the next data set the test system is Lewis Lung Cancer (LLC). Nature of the data set: NIR detection of flank tumors and pulmonary metastases in the LLC mouse model.
A short description of data set [6]: Semi-quantification of ICG concentration in plasma (fluorometry). Format: in vivo, human. Here is the method:
Techniques have been previously described to use fluorometry to quantify concentrations of ICG in plasma. We obtained aliquots of each patient's blood before injection with ICG. These samples were spun down at 1100 RPM for 10 minutes and aliquots of plasma were removed. 2 mg of ICG was dissolved in 1 ml of plasma and serially diluted thirteen times to a concentration of 125 μg per liter. 100 microliters of each of these dilutions were pipetted into a separate wells in a standard black 96 well plate along with one well of 100 microliters of plasma without ICG. At the time of operation, each patient had their plasma obtained and serially diluted six times to a final ratio of 1:1000. Plates were examined using a SpetraMax Fluorometer® with a peak excitation of 805 nm and 830 nm. Each well was scanned 6 times. Readings were export as Microsoft Excel® spread sheets.

Where [7] appears, read: ex vivo spectroscopic examination.

Procedure for Lewis Lung Cancer (LLC): as §1
Starting on Day 12, mice (n=9) were injected with 7.5 mg/kg of ICG via tail vein every three days. […] Subsequently, the chest was opened and inspected for NIR emission from pulmonary metastases.
Female C57BL/6 (B6, Thy1.2), BALB/c, athymic Ncr-nu/nu and B6-12931 hybrid mice mice were purchased from Charles River Laboratories and Jackson Laboratories. All mice were maintained in pathogen-free conditions and used for experiments at ages 8 week or older. […] Tumor cells for subcutaneous injections were suspended in 100 μL PBS. Tumor volume was calculated using the formula (π×long-axis×short-axis^2)/6.
Pharmaceutical grade indocyanine green (ICG) was purchased from Akorn Pharmaceuticals (Lake Forest, Ill.). Mice received 7.5 mg/kg ICG via tail vein 20 hours prior to surgery.
A hand-held near infrared spectrometer has been previously described in detail.^18 In brief, a Raman probe detector was incorporated into a cylindrical stainless steel sampling head integrated with a 5 m, two-fiber cable; one for laser excitation and the other for light collection. The sampling head and fiber cable were coupled via an FC connector to a spectrometer. The combined sampling head and spectrometer system has a wavelength range of 800-930 nm with 0.6 nm spectral resolution for near infrared (NIR) fluorescence measurement. […] The signal can be semi-quantitated from 0 to 60,000 arbitrary units (au).
Procedure for chest and breast tumors: Between January and June 2012, 27 consecutive patients who were candidates for surgical removal of chest and breast tumors were enrolled in this study (Table 1). Patients were given a single peripheral vein injection of 5 mg/kg ICG, 24 hours prior to surgery. […] Their ages ranged from 31 to 78 years (median=65 years). […] All enrolled patients were thought to have limited disease, amenable to surgery, and had no metastases (ie. potentially curable). […] Preoperative computed axial and positron emission tomography and/or magnetic resonance imaging predicted no metastatic disease in each case. The median tumor size was 2.0 cm (range 0.6-13.0 cm) on preoperative imaging. Each patient had serum obtained before and 24 hours after ICG injection.
To determine if indocyanine green would be delivered to human tumors, patients undergoing cancer surgery were first imaged in vivo at the onset of the operation. At the time of surgery, the chest was opened and inspected by standard visualization and manual palpation. […] A dual camera head with a brightfield and a NIR output was then used to visualize tumor fluorescence (FIG. 7). […] Attempts to quantitate tumor fluorescence in vivo were not feasible for several reasons including variations in operating room conditions, lack of miniaturized tissue spectrometer with safe laser light source and the inability to control for changes in distance from the specimen to the tip of the spectrometer. […] All quantitative measurements were made later ex vivo once the specimen had been removed. To examine in vivo data on the distribution of ICG, a complete visual examination of the each patients' skin, muscles (lattismus dorsi, serratus anterior, intercostal, diaphragm), pericardium and heart, aorta, normal lung, lymph nodes, adipose tissues, nerves (phrenic, intercostal), and thymus was performed whenever possible.
Thus, prior to closing the body cavity but after the tumor was removed, the chest or breast was inspected visually and by manual palpation for sites of cancer metastases. […] Then, to validate the surgeons' clinical decision, the chest was imaged for NIR fluorescence.
The other application of tumor fluorescence during surgery was to confirm that resection was complete and that no tumor cells were left behind in the surgical field. Thus, once the surgeons had completed each case and decided they had obtained disease clearance at the surgical site, the surgical wound and resection field was imaged.

For `CN(C)c1ccc2nc3ccc(=[N+](C)C)cc-3sc2c1` [MB, methylene blue], in data set [1] (7.5 mg/kg, e.g. methemoglobinaemia or anaphylaxis), the adverse reactions entry was “sometimes causes severe adverse reactions”.

Consider `CC1(C)C(/C=C/C=C/C=C/C=C2\N(CCCCS(=O)(=O)[O-])c3ccc4ccccc4c3C2(C)C)=[N+](CCCCS(=O)(=O)[O-])c2ccc3ccccc3c21.[Na+]` [ICG, indocyanine green], for which, in the data set with chest and breast tumors (2 patients, sites greater than 5 cm from primary tumor, confirmed by frozen biopsy), the “cancer cases in which fluorescence identified unrecognized metastatic tumor deposits” value is reported as 8%. In addition, in the data set on chest and breast tumors (16 out of 27 cases, 5 mg/kg ICG 24 hours prior to surgery), the “cases in which dual camera head could detect tumor fluorescence in vivo” value was 59%. Further, in the data set on chest and breast tumors (Patient #2), the “fluorescence of three metastatic sites in right lower pulmonary lobe” value is listed as > 48,000 au and the “smallest metastatic nodule detected, diameter” value was determined as 0.4 mm. The “mean fluorescence of breast mass in the operating room” value in the data set with chest and breast tumors (Patient #24, infiltrative ductal carcinoma) was 52,748 au. The “in vivo fluorescence of normal tissues (skin, muscles, pericardium, heart, aorta, lung, lymph nodes, adipose, nerves, thymus)” value in the data set on chest and breast tumors (all cases, visual examination) is on record as “no tissue fluorescence except the abnormal tumor”. Moreover, in the data set with chest and breast tumors (in vivo NIR imaging), the “deepest tumor that could be detected, distance from the surface of the organ” value was about 1 cm. Moreover, in the data set with chest and breast tumors (per case), the “Clinical Details: lesion fluorescence” value is on record as “Benign lesion did not glow”. In [2], the “fraction of ICG binding to serum proteins (albumin, lipoproteins) upon injection into the blood” value was 95%. In addition, the “masses with strong fluorescence, qualitative NIR imaging” value with human tumors [3] (25 out of 27 masses, ex vivo) turned out to be 92%. Further, the “mean fluorescence in the human tumors” value in the data set with human tumors [3] (25 out of 27 masses, ex vivo hand held spectrometer) was 53,304±4193 au. Further, in the data set with human tumors [3] (ex vivo), the “fluorescence of non-fluorescent metastatic melanoma” value is reported as 7,342±411 au, the “mean fluorescence of highly fluorescent melanoma” value is reported as 57,210 au, the “mean fluorescence of minimally fluorescent melanoma in a different patient” value is 7,332 au and the “signal in areas of atelectatic lung (range)” value is 0 to 24,832 au. Besides, in the data set on human tumors [3] (setting [7]), the “average signal at the tumor margin” value is given as “over 50,000 au” and the “average signal within 2 mm of the gross tumor margin” value is recorded as “less than 12,000 au”. The “fluorescence of aspergillus ball” value in the data set on human tumors [3] (ex vivo, localized fungus infection) is on record as 58,209±1,302 au. Further, the “fluorescence of pulmonary infarct (hematoma)” value with human tumors [3] (ex vivo, non-cancer) is 8,002±554 au. Also, in the data set on human tumors [3] (skin, muscles, pericardium, normal lung, lymph nodes, adipose, nerves, airway, thymus), the “background signal in surrounding tissue in the body cavity” value was “no evidence of background signal”. Further, the “mean fluorescence from the tumor” value in [4] was 54,238 au. Also, in the data set on human tumors [5] (9 of the 10 specimens, ex vivo), the “ICG concentration in tumors” value is 2 to 100 µg/mL. Besides, in the data set with human tumors [5] (ex vivo, 5 mg/kg ICG), the “ICG concentration in control tissues of normal lung” value was “undetectable”. In addition, the “ICG concentration in metastatic melanoma” value with human tumors [5] (one cancer, not subjectively fluorescent) is given as “less than 1 μg/ml”. In addition, the “earliest day NIR signal from pulmonary metastases detected” value in the data set on Lewis Lung Cancer (LLC) (LLC injected Day 0, 7.5 mg/kg ICG, deposits not visible to un-assisted eye) is 15 days. For the same compound, in the data set on Lewis Lung Cancer (LLC) (by histology), the “smallest pulmonary metastatic deposit detected” value stood at 0.4 mm. In addition, the “background fluorescence (mean)” value in the data set on Lewis Lung Cancer (LLC) (murine lung) came to 4290 au. In addition, the “patients upstaged by intraoperative imaging of fluorescent tumors” value (2 out of 27 patients) is recorded as 7.4%. For the same compound, the “toxicities, adverse events or deaths related to injection of ICG” value (27 patients, 5 mg/kg ICG) is “no obvious toxicities, adverse events or deaths”. For the same compound, in data set [1] (Indocyanine Green for Injection USP), the “known toxicity of the agent” value was “no known toxicity”. The “ICG in patient's plasma 24 hours after ICG injection” value in data set [6] (SpetraMax Fluorometer) was “No measurable ICG”. For the same compound, in [6] (patients, 5 mg/kg ICG peripheral vein, fluorometric interrogation of serum), the “ICG in plasma after 20 hours” value is listed as “no patient had detectable ICG”.

As for `CN1C(=CC=C2CCCC(C=CC3=[N+](C)c4ccccc4C3(C)C)=C2Cl)C(C)(C)c2ccccc21.[O-][Cl+3]([O-])([O-])[O-]` [IR-786], the “clearance after intravenous injection” value in data set [2] (iv) was “rapidly extracted into many tissues in the body, especially the liver, and is inefficiently transported into bile”.
